Measured values published in ChEMBL document CHEMBL3885881, “DrugMatrix”.

Species: Rattus norvegicus
Experiment: DrugMatrix - Regimen: Daily Repeat
Assay type: toxicity, organism-based, Sprague-Dawley
Set-up: regimen Daily Repeat, gender Male, age 6-8 weeks
Settings: in vivo, po, route oral GAVAGE, […]; for ABSOLUTE BASOPHIL / BASOPHIL / NUCLEATED RED BLOOD CELLS / ABSOLUTE EOSINOPHIL / EOSINOPHIL / HEMOGLOBIN / ABSOLUTE LYMPHOCYTE / ABSOLUTE MONOCYTE / ABSOLUTE SEGMENTED NEUTROPHIL / ERYTHROCYTE COUNT / HEMATOCRIT / LEUKOCYTE COUNT / LYMPHOCYTE / MEAN CORPUSCULAR HEMOGLOBIN / MEAN CORPUSCULAR HEMOGLOBIN CONCENTRATION / MEAN CORPUSCULAR VOLUME / MONOCYTE / NEUTROPHIL / PLATELET COUNT: tissue Blood; for TOTAL BILIRUBIN / ALANINE AMINOTRANSFERASE / ALBUMIN / ALKALINE PHOSPHATASE / ASPARTATE AMINOTRANSFERASE / BLOOD UREA NITROGEN / CARBON DIOXIDE / CHLORIDE / CHOLESTEROL / CREATINE PHOSPHOKINASE / CREATININE / GLUCOSE / LACTATE DEHYDROGENASE / LIPASE / PHOSPHORUS / POTASSIUM / SODIUM / TOTAL PROTEIN / URIC ACID: tissue Plasma
[1] = 0 mg/kg, 72 h, dose level Control, time 3 day
[2] = 0 mg/kg, 120 h, dose level Control, time 5 day
[3] = 3 mg/kg, 72 h, dose level Low, time 3 day
[4] = 3 mg/kg, 120 h, dose level Low, time 5 day
[5] = 9 mg/kg, 72 h, dose level M1, time 3 day

CS(=O)(=O)OCCCCOS(C)(=O)=O [BUSULFAN]
ABSOLUTE BASOPHIL [1]: 0 CELLS/uL
BASOPHIL [1]: 0%
NUCLEATED RED BLOOD CELLS [1]: 0 /100WBC
TOTAL BILIRUBIN [1]: 0.2 mg/dL
ABSOLUTE BASOPHIL [2]: 0 CELLS/uL
ABSOLUTE EOSINOPHIL [2]: 0 CELLS/uL
BASOPHIL [2]: 0%
EOSINOPHIL [2]: 0%
HEMOGLOBIN [2]: 13.5 G/DL
ABSOLUTE BASOPHIL [3]: 0 CELLS/uL
ABSOLUTE EOSINOPHIL [3]: 108.33 CELLS/uL
ABSOLUTE LYMPHOCYTE [3]: 8850.33 CELLS/uL
ABSOLUTE MONOCYTE [3]: 34.33 CELLS/uL
ABSOLUTE SEGMENTED NEUTROPHIL [3]: 773.67 CELLS/uL
BASOPHIL [3]: 0%
EOSINOPHIL [3]: 1%
ERYTHROCYTE COUNT [3]: 4.94 x10E6/uL
HEMATOCRIT [3]: 32%
HEMOGLOBIN [3]: 12.67 G/DL
LEUKOCYTE COUNT [3]: 9.77 x10E3/uL
LYMPHOCYTE [3]: 91%
MEAN CORPUSCULAR HEMOGLOBIN [3]: 25.67 pg
MEAN CORPUSCULAR HEMOGLOBIN CONCENTRATION [3]: 39.6 G/DL
MEAN CORPUSCULAR VOLUME [3]: 64.8 fL
MONOCYTE [3]: 0.33%
NEUTROPHIL [3]: 7.67%
NUCLEATED RED BLOOD CELLS [3]: 0 /100WBC
PLATELET COUNT [3]: 940.33 x10E3/uL
ALANINE AMINOTRANSFERASE [3]: 62.33 u/L
ALBUMIN [3]: 3.77 G/DL
ALKALINE PHOSPHATASE [3]: 286.67 u/L
ASPARTATE AMINOTRANSFERASE [3]: 86.67 u/L
BLOOD UREA NITROGEN [3]: 12.33 mg/dL
CARBON DIOXIDE [3]: 33.5 mmol/L
CHLORIDE [3]: 101 MEQ/L
CHOLESTEROL [3]: 62.33 mg/dL
CREATINE PHOSPHOKINASE [3]: 229.33 u/L
CREATININE [3]: 0.12 mg/dL
GLUCOSE [3]: 162.67 mg/dL
LACTATE DEHYDROGENASE [3]: 71.67 u/L
LIPASE [3]: 12 u/L
PHOSPHORUS [3]: 10 mg/dL
POTASSIUM [3]: 5.22 MEQ/L
SODIUM [3]: 144.35 MEQ/L
TOTAL BILIRUBIN [3]: 0.13 mg/dL
TOTAL PROTEIN [3]: 5.37 G/DL
URIC ACID [3]: 0.47 mg/dL
ABSOLUTE BASOPHIL [4]: 0 CELLS/uL
ABSOLUTE EOSINOPHIL [4]: 12.67 CELLS/uL
ABSOLUTE LYMPHOCYTE [4]: 5804 CELLS/uL
ABSOLUTE MONOCYTE [4]: 73.33 CELLS/uL
ABSOLUTE SEGMENTED NEUTROPHIL [4]: 310 CELLS/uL
BASOPHIL [4]: 0%
EOSINOPHIL [4]: 0.33%
ERYTHROCYTE COUNT [4]: 5.4 x10E6/uL
HEMATOCRIT [4]: 33.53%
HEMOGLOBIN [4]: 12.9 G/DL
LEUKOCYTE COUNT [4]: 6.2 x10E3/uL
LYMPHOCYTE [4]: 92.67%
MEAN CORPUSCULAR HEMOGLOBIN [4]: 23.9 pg
MEAN CORPUSCULAR HEMOGLOBIN CONCENTRATION [4]: 38.5 G/DL
MEAN CORPUSCULAR VOLUME [4]: 62.07 fL
MONOCYTE [4]: 1.33%
NEUTROPHIL [4]: 5.67%
NUCLEATED RED BLOOD CELLS [4]: 0 /100WBC
PLATELET COUNT [4]: 1068.67 x10E3/uL
ALANINE AMINOTRANSFERASE [4]: 47.67 u/L
ALBUMIN [4]: 4.13 G/DL
ALKALINE PHOSPHATASE [4]: 363 u/L
ASPARTATE AMINOTRANSFERASE [4]: 87 u/L
BLOOD UREA NITROGEN [4]: 12.33 mg/dL
CARBON DIOXIDE [4]: 28.67 mmol/L
CHLORIDE [4]: 100 MEQ/L
CHOLESTEROL [4]: 62 mg/dL
CREATINE PHOSPHOKINASE [4]: 290.67 u/L
CREATININE [4]: 0.16 mg/dL
GLUCOSE [4]: 165.67 mg/dL
LACTATE DEHYDROGENASE [4]: 77.67 u/L
LIPASE [4]: 13.33 u/L
PHOSPHORUS [4]: 9.3 mg/dL
POTASSIUM [4]: 5.76 MEQ/L
SODIUM [4]: 145.25 MEQ/L
TOTAL BILIRUBIN [4]: 0.17 mg/dL
TOTAL PROTEIN [4]: 6 G/DL
URIC ACID [4]: 0.53 mg/dL
ABSOLUTE BASOPHIL [5]: 0 CELLS/uL
ABSOLUTE EOSINOPHIL [5]: 0 CELLS/uL
ABSOLUTE LYMPHOCYTE [5]: 12304.67 CELLS/uL
ABSOLUTE MONOCYTE [5]: 88.33 CELLS/uL
ABSOLUTE SEGMENTED NEUTROPHIL [5]: 840.33 CELLS/uL
BASOPHIL [5]: 0%
EOSINOPHIL [5]: 0%
ERYTHROCYTE COUNT [5]: 5.46 x10E6/uL
HEMATOCRIT [5]: 33.63%
HEMOGLOBIN [5]: 13.23 G/DL
LEUKOCYTE COUNT [5]: 13.23 x10E3/uL
LYMPHOCYTE [5]: 92.67%
MEAN CORPUSCULAR HEMOGLOBIN [5]: 24.27 pg
MEAN CORPUSCULAR HEMOGLOBIN CONCENTRATION [5]: 39.37 G/DL
MEAN CORPUSCULAR VOLUME [5]: 61.57 fL
MONOCYTE [5]: 0.67%
NEUTROPHIL [5]: 6.67%
NUCLEATED RED BLOOD CELLS [5]: 0 /100WBC
PLATELET COUNT [5]: 1234.33 x10E3/uL
ALANINE AMINOTRANSFERASE [5]: 56.33 u/L
ALBUMIN [5]: 4.03 G/DL
ALKALINE PHOSPHATASE [5]: 362 u/L
ASPARTATE AMINOTRANSFERASE [5]: 76 u/L
BLOOD UREA NITROGEN [5]: 13 mg/dL
CARBON DIOXIDE [5]: 29.33 mmol/L
CHLORIDE [5]: 102.33 MEQ/L
CHOLESTEROL [5]: 77 mg/dL
CREATINE PHOSPHOKINASE [5]: 320.33 u/L
CREATININE [5]: 0.19 mg/dL
GLUCOSE [5]: 162.67 mg/dL
LACTATE DEHYDROGENASE [5]: 161.33 u/L
LIPASE [5]: 12 u/L
PHOSPHORUS [5]: 10.37 mg/dL
